Results on two molecules are retold here after patent US10393748B2, “Method for predicting efficacy of c-Met inhibitor” (Samsung Electronics Co., Ltd., priority 2014, dated 2019).

What all share (type): cell-based, human
One experiment deals with EBC-1. In words: Cell proliferation, Cell-Titer Glo (CTG) assay, EBC-1. Particulars: inhibitor concentration of 10 nM or more, 72 hours. The protocol:
(§1) The 4 cell lines were seeded on a 96 well plate at the same amount (1×10^4 cells/well) and cultured for 24 hours (media: RPMI (Gibco, Invitrogen), culture conditions: 37° C., 5% CO2). The cultured cells were treated with representative c-Met inhibitor, crizotinib (Selleck chemical) and PHA665752((R,Z)-5-(2,6-dichlorobenzylsulfonyl)-3-((3,5-dimethyl-4-(2-(pyrrolidin-1-ylmethyl)pyrrolidine-1-carbonyl)-1H-pyrrol-2-yl)methylene)indolin-2-one), respectively. For comparison, human control IgG (chrompure human IgG (009-000-003, JACKSON IMMUNORESEARCH LABS INC.)) as a control and anti-c-Met antibody L3-1Y/IgG2 (Reference Example) were used respectively. Each of the inhibitors (or antibody) was treated at 10-fold serial diluted concentrations from 1000 nM to 0.01 nM. 72 hours after the treatment, the level of IL-8 in cell culture of each treatment group was assayed by Cytometric Bead Array (CBA) method using BD Cytometric Bead Array kit (see Example 1.1.2). In addition, in order to verify the anticancer efficacy of the c-Met inhibitors, the cell proliferation (%) was measured at 72 hours after c-Met inhibitor treatment through Cell-Titer Glo (CTG) assay.

The subject of another experiment is Hs746T. As to the kind of experiment: Cell proliferation, Cell-Titer Glo (CTG) assay, Hs746T. The note with it: inhibitor concentration of 10 nM or more, 72 hours. As to the method:
as §1

The next experiment has as its system Lovo. As to the kind of experiment: Cell proliferation, Cell-Titer Glo (CTG) assay, Lovo. Particulars: 0.01 to 1000 nM, 72 hours. The protocol:
as §1

The subject of another experiment is HT29. In words: Cell proliferation, Cell-Titer Glo (CTG) assay, HT29. Particulars: 0.01 to 1000 nM, 72 hours. As to the method: as §1

Each structure is given as a SMILES string.

Consider `Cc1[nH]c(/C=C2\C(=O)Nc3ccc(S(=O)(=O)Cc4c(Cl)cccc4Cl)cc32)c(C)c1C(=O)N1CCC[C@@H]1CN1CCCC1` [PHA665752, (R,Z)-5-(2,6-dichlorobenzylsulfonyl)-3-((3,5-dimethyl-4-(2-(pyrrolidin-1-ylmethyl)pyrrolidine-1-carbonyl)-1H-pyrrol-2-yl)methylene)indolin-2-one], for which the “cell proliferation (%)” value in the experiment with EBC-1 is “significantly inhibited”; in the experiment on Hs746T, “significantly inhibited”; with Lovo, “no significant decrease”; in the experiment with HT29, “no significant decrease”.
Consider `C[C@@H](Oc1cc(-c2cnn(C3CCNCC3)c2)cnc1N)c1c(Cl)ccc(F)c1Cl` [crizotinib, 3-((R)-1-(2,6-dichloro-3-fluorophenyl)ethoxy)-5-(1-(piperidin-4-yl)-1H-pyrazol-4-yl)pyridin-2-amine], for which the “cell proliferation (%)” value with EBC-1 is recorded as “significantly inhibited”; in the experiment with Hs746T, “significantly inhibited”; with Lovo, “no significant decrease”; with HT29, “no significant decrease”.
